Columns and labels:
[1] = Example 1: stability of bilberry extract anthocyanosides, 4 hours at 37° C., pH 7.0, with/without DHLA or GSH (HPLC); type: physicochemical; details: for % left, GSH (4 hours) / Peak Area, GSH (4 hours): 20 mg reduced L-glutathione; for % left, GSH (4 hours) / Peak Area, GSH (4 hours) / % left, DHLA (4 hours) / Peak Area, DHLA (4 hours) / % left, Blank (4 hours) / Peak Area, Blank (4 hours): pH 7.0, 37° C.; for % left, DHLA (4 hours) / Peak Area, DHLA (4 hours): 30 mg dihydrolipoic acid; for Peak Area, Fresh (0 hours): bilberry extract 60 mg/100 ml sodium phosphate buffer pH 7.0, fresh sample; for % left, Blank (4 hours) / Peak Area, Blank (4 hours): unprotected
[2] = Example 2: degradation over time of selected bilberry anthocyanosides at 37° C., pH 7.0, with/without GSH (HPLC); type: physicochemical; details: pH 7.0, 37° C.; for %-residual anthocyanosides (% left): 4.30 hours
Procedure: Sample a) 60 mg bilberry extract [37% anthocyanosides] (0.048 mmol expressed as cyanidin-3-O-glucoside) were added to a 100 ml, filled to volume with sodium phosphate buffer (5% [w/w], pH=7.0) and stirred until dissolution was complete. A 1 ml sample was immediately taken and acidified with formic acid to pH=1.0 and analyzed by HPLC for the content of anthocyanosides. The remaining solution was kept at 37° C. (water bath) with stirring and additional 1 ml samples (Blank Samples), representing unprotected degradation, were sampled every 15 minutes. The samples were analyzed for selected anthocyanosides by HPLC.
Sample b) 20 mg reduced L-glutathione (0.065 mmol) were added to a 100 ml flask with 60 ml sodium phosphate buffer (5% [w/w], pH=7.0) and stirred until dissolution was complete. 60 mg bilberry extract [37% anthocyanosides] (0.048 mmol expressed as cyanidin-3-O-glucoside) were added and the flask was filled to volume with sodium phosphate buffer (5% [w/w], pH=7.0) and kept at 37° C. (water bath) with stirring. Every 15 minutes, 1 ml samples were taken and analyzed for selected anthocyanosides by HPLC.
Samples were prepared as outlined below in HPLC Analytical Method. Test stability samples were immediately acidified (to block degradation) and injected undiluted following the detailed description provided below.
HPLC Analytical Method (Materials, Instruments and Methods): […]

Oc1cc(O)c2cc(O[C@@H]3OC[C@H](O)[C@H](O)[C@H]3O)c(-c3ccc(O)c(O)c3)[o+]c2c1 [Cn-3O-Ara, Cyanidin 3-o-arabinoside]
% left, GSH (4 hours) [1]: 79.5%
Peak Area, GSH (4 hours) [1]: 293.7
% left, DHLA (4 hours) [1]: 70.2%
Peak Area, DHLA (4 hours) [1]: 258.4
Peak Area, Fresh (0 hours) [1]: 369.6
% left, Blank (4 hours) [1]: 38.5%
Peak Area, Blank (4 hours) [1]: 142.3

Oc1cc(O)c2cc(O[C@H]3OC[C@H](O)[C@H](O)[C@H]3O)c(-c3cc(O)c(O)c(O)c3)[o+]c2c1 [Dp-3O-Ara, Delphinidin 3-o-arabinoside]
% left, GSH (4 hours) [1]: 50.2%
Peak Area, GSH (4 hours) [1]: 283.6
% left, DHLA (4 hours) [1]: 64.5%
Peak Area, DHLA (4 hours) [1]: 364.4
Peak Area, Fresh (0 hours) [1]: 564.9
% left, Blank (4 hours) [1]: 6.9%
Peak Area, Blank (4 hours) [1]: 39.1

COc1cc(-c2[o+]c3cc(O)cc(O)c3cc2O[C@@H]2OC[C@H](O)[C@H](O)[C@H]2O)cc(OC)c1O [Mv-3O-Ara, Malvidin 3-o-arabinoside]
% left, GSH (4 hours) [1]: 75.0%
Peak Area, GSH (4 hours) [1]: 81.2
% left, DHLA (4 hours) [1]: 69.4%
Peak Area, DHLA (4 hours) [1]: 75.2
Peak Area, Fresh (0 hours) [1]: 108.3
% left, Blank (4 hours) [1]: 34.0%
Peak Area, Blank (4 hours) [1]: 36.8

COc1cc(-c2[o+]c3cc(O)cc(O)c3cc2O[C@@H]2O[C@H](CO)[C@H](O)[C@H](O)[C@H]2O)cc(OC)c1O [Mv-3O-Gal, Malvidin 3-o-galactoside]
% left, GSH (4 hours) [1]: 74.4%
Peak Area, GSH (4 hours) [1]: 133.2
% left, DHLA (4 hours) [1]: 62.8%
Peak Area, DHLA (4 hours) [1]: 112.5
Peak Area, Fresh (0 hours) [1]: 179.1
% left, Blank (4 hours) [1]: 37.6%
Peak Area, Blank (4 hours) [1]: 67.3

COc1cc(-c2[o+]c3cc(O)cc(O)c3cc2O[C@@H]2O[C@H](CO)[C@@H](O)[C@H](O)[C@H]2O)cc(OC)c1O [Mv-3O-Glc, Malvidin 3-o-glucoside]
% left, GSH (4 hours) [1]: 73.7%
Peak Area, GSH (4 hours) [1]: 336.2
% left, DHLA (4 hours) [1]: 63.0%
Peak Area, DHLA (4 hours) [1]: 287.4
Peak Area, Fresh (0 hours) [1]: 455.9
% left, Blank (4 hours) [1]: 36.1%
Peak Area, Blank (4 hours) [1]: 164.7

COc1cc(-c2[o+]c3cc(O)cc(O)c3cc2O[C@@H]2O[C@H](CO)[C@@H](O)[C@H](O)[C@H]2O)ccc1O [Pe-3O-Glc, Peonidin 3-o-glucoside]
% left, GSH (4 hours) [1]: 76.9%
Peak Area, GSH (4 hours) [1]: 172.0
% left, DHLA (4 hours) [1]: 62.3%
Peak Area, DHLA (4 hours) [1]: 139.2
Peak Area, Fresh (0 hours) [1]: 223.6
% left, Blank (4 hours) [1]: 42.4%
Peak Area, Blank (4 hours) [1]: 94.8

COc1cc(-c2[o+]c3cc(O)cc(O)c3cc2O[C@@H]2OC[C@H](O)[C@H](O)[C@H]2O)cc(O)c1O.[Cl-] [Pt-3O-Ara, Petunidin 3-o-arabinoside]
% left, GSH (4 hours) [1]: 69.4%
Peak Area, GSH (4 hours) [1]: 97.6
% left, DHLA (4 hours) [1]: 66.6%
Peak Area, DHLA (4 hours) [1]: 93.7
Peak Area, Fresh (0 hours) [1]: 140.6
% left, Blank (4 hours) [1]: 16.2%
Peak Area, Blank (4 hours) [1]: 22.8

COc1cc(-c2[o+]c3cc(O)cc(O)c3cc2OC2OC(CO)C(O)C(O)C2O)cc(O)c1O (stereo not shown) [Pt-3O-Gal, Petunidin 3-o-galactoside]
% left, GSH (4 hours) [1]: 69.3%
Peak Area, GSH (4 hours) [1]: 150.0
% left, DHLA (4 hours) [1]: 61.4%
Peak Area, DHLA (4 hours) [1]: 132.8
Peak Area, Fresh (0 hours) [1]: 216.4
% left, Blank (4 hours) [1]: 18.8%
Peak Area, Blank (4 hours) [1]: 40.7
Peak Area ([2]; Blank Sample, 1:15 h): 124.16
Peak Area ([2]; Blank Sample, 4:15 h): 102.44
Peak Area ([2]; Blank Sample, 4:30 h): 58.78
Peak Area ([2]; Blank sample, 0:00 h): 237.44
Peak Area ([2]; Blank sample, 0:15 h): 179.60
Peak Area ([2]; Blank sample, 0:30 h): 203.39
Peak Area ([2]; Blank sample, 0:45 h): 152.46
Peak Area ([2]; Blank sample, 1:00 h): 161.49
Peak Area ([2]; Blank sample, 1:45 h): 144.59
Peak Area ([2]; Blank sample, 2:00 h): 132.38
Peak Area ([2]; Blank sample, 2:15 h): 121.96
Peak Area ([2]; Blank sample, 2:30 h): 96.36
Peak Area ([2]; Blank sample, 2:45 h): 99.38
Peak Area ([2]; Blank sample, 3:00 h): 127.47
Peak Area ([2]; Blank sample, 3:15 h): 123.02
Peak Area ([2]; Blank sample, 3:30 h): 98.72
Peak Area ([2]; Blank sample, 4:00 h): 107.51
%-residual anthocyanosides (% left) ([2]; Blank): 25%
Peak Area ([2]; GSH Protected Sample (20 mg), 0:30 h): 222.35
Peak Area ([2]; GSH Protected Sample (20 mg), 1:30 h): 202.34
Peak Area ([2]; GSH Protected Sample (20 mg), 2:30 h): 169.36
Peak Area ([2]; GSH Protected Sample (20 mg), 3:30 h): 181.53
Peak Area ([2]; GSH Protected Sample (20 mg), 4:30 h): 181.46
Peak Area ([2]; GSH Protected Sample (20 mg), 4:45 h): 166.84
Peak Area ([2]; GSH protected sample (20 mg), 0:00 h): 248.16
Peak Area ([2]; GSH protected sample (20 mg), 0:15 h): 245.04
Peak Area ([2]; GSH protected sample (20 mg), 0:45 h): 195.63
Peak Area ([2]; GSH protected sample (20 mg), 1:00 h): 213.84
Peak Area ([2]; GSH protected sample (20 mg), 1:15 h): 210.34
Peak Area ([2]; GSH protected sample (20 mg), 1:45 h): 194.88
Peak Area ([2]; GSH protected sample (20 mg), 2:00 h): 193.23
Peak Area ([2]; GSH protected sample (20 mg), 2:15 h): 199.06
Peak Area ([2]; GSH protected sample (20 mg), 2:45 h): 183.97
Peak Area ([2]; GSH protected sample (20 mg), 3:00 h): 189.41
Peak Area ([2]; GSH protected sample (20 mg), 3:15 h): 185.92
Peak Area ([2]; GSH protected sample (20 mg), 3:45 h): 173.03
Peak Area ([2]; GSH protected sample (20 mg), 4:00 h): 193.79
Peak Area ([2]; GSH protected sample (20 mg), 4:15 h): 179.46
%-residual anthocyanosides (% left) ([2]; GSH-protected): 67%
%-residual anthocyanosides (% left) ([2]; GSH-protected, listed as petunidin-3-O-Galactose): 67%

COc1cc(-c2[o+]c3cc(O)cc(O)c3cc2O[C@@H]2O[C@H](CO)[C@@H](O)[C@H](O)[C@H]2O)cc(O)c1O [Pt-3O-Glc, Petunidin 3-o-glucoside]
% left, GSH (4 hours) [1]: 66.7%
Peak Area, GSH (4 hours) [1]: 315.6
% left, DHLA (4 hours) [1]: 57.4%
Peak Area, DHLA (4 hours) [1]: 271.9
Peak Area, Fresh (0 hours) [1]: 473.4
% left, Blank (4 hours) [1]: 16.6%
Peak Area, Blank (4 hours) [1]: 78.8

— patent US8623429B2, “Stabilized anthocyanin compositions” (Omnica GmbH, priority 2007, dated 2014)
